The record followed here is patent US20070249620A1, “Urea Derivative” (priority 2004, published 2007).

Usually melting point stands for the temperature, or range, at which the solid turns liquid.

For one series, the target named is T1, mouse DGAT1 (Mus musculus, UniProt Q9Z2A7).
T1 construct: made in house; host or cells: insect cells (High Five, Sf9, Sf21, etc.), baculovirus expression system (Invitrogen)
T1 sequence (Q9Z2A7 1-498): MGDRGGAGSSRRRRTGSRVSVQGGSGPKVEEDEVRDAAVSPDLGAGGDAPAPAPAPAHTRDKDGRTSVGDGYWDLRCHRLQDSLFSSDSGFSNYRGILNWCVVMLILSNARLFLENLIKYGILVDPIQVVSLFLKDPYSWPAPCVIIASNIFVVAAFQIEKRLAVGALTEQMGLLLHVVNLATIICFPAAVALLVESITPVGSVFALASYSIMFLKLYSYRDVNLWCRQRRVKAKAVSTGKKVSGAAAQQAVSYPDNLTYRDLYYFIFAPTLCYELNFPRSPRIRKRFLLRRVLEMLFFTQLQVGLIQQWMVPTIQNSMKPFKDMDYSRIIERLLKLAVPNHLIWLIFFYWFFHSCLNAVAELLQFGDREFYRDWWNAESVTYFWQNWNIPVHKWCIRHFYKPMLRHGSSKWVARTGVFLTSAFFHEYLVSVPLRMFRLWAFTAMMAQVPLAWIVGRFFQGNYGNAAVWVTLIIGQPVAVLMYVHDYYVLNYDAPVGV
Nature of the series: DGAT1 inhibitory effect test (microsome fraction, [14C]-oleoyl-CoA, triglyceride radioactivity by TLC). It counts as biochemical. As to conditions: 0.5 h; concentration of the test compound 0.1 μg/ml; mouse DGAT1 microsomes, 23° C., 30 minutes; read-out: Inhibitory ratio. In short, it runs like this:
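Baculovirus-expressed mouse DGAT1 insect-cell microsomes (10 μg) were incubated 30 min at 23 °C, pH 8.0, with 0.5 mM 1,2-dioleoyl-sn-glycerol, 30 μM [14C]-oleoyl-CoA and 0.5% Triton X-100. [14C]-triglyceride was quantified after heptane extraction and TLC. Percent inhibition was taken against vehicle control, with 0-min background subtracted.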

On to `COc1cc(NC(=O)Nc2ccc(N3CCN(C(=O)Nc4ncc(F)cc4F)CC3)cc2)cc(OC)c1` [Example 341, 4-{4-[3-(3,5-dimethoxy-phenyl)-ureido]-phenyl}-piperazine-1-carboxylic acid (3,5-difluoro-pyridin-2-yl)-amide], for which the melting point is 204 to 205 °C. For the same compound, the inhibition at 0.1 µg/mL on mouse DGAT1 is ≥ 50%.
The compound `O=C(Nc1ccc(N2CCN(C(=O)C(O)c3ccccc3Cl)CC2)nc1)Nc1ccccc1F` (stereo not drawn) [Example 377, 1-(6-{4-[2-(2-chloro-phenyl)-2-hydroxy-acetyl]-piperazin-1-yl}-pyridin-3-yl)-3-(2-fluoro-phenyl)-urea] returned a melting point of 127 to 128 °C. The inhibition at 0.1 µg/mL on mouse DGAT1 is ≥ 50%.
The compound `COc1ccc(C)cc1NC(=O)Nc1ccc(N2CCN(C(=O)C(O)c3ccccc3Cl)CC2)cc1` (stereo not drawn) [Example 378, 1-(4-{4-[2-(2-chloro-phenyl)-2-hydroxy-acetyl]-piperazin-1-yl}-phenyl)-3-(2-methoxy-5-methyl-phenyl)-urea] came in with a melting point of 118 to 120 °C. For the same compound, the inhibition at 0.1 µg/mL at mouse DGAT1 is ≥ 50%.
Take `O=C(Nc1ccc(N2CCN(C(=O)C(O)c3ccc(O)cc3Cl)CC2)nc1)Nc1ccccc1F` (stereo not drawn) [Example 379, 1-(6-{4-[2-(2-chloro-4-hydroxy-phenyl)-2-hydroxy-acetyl]-piperazin-1-yl}-pyridin-3-yl)-3-(2-fluoro-phenyl)-urea]: the melting point was in the range of 133 to 135 °C. Also, at mouse DGAT1, the inhibition at 0.1 µg/mL is ≥ 50%.
For `COc1ccc(C)cc1NC(=O)Nc1ccc(N2CCN(C(=O)C(O)c3ccccc3Cl)CC2)nc1` (stereo not drawn) [Example 380, 1-(6-{4-[2-(2-chloro-phenyl)-2-hydroxy-acetyl]-piperazin-1-yl}-pyridin-3-yl)-3-(2-methoxy-5-methyl-phenyl)-urea], in that order: 118 to 120 °C and ≥ 50%.
Regarding `O=C(Nc1ccc(N2CCN(C(=O)Nc3ccc(C(=O)O)cc3Cl)CC2)cc1)Nc1ccccc1F` [Example 388, 3-chloro-4-[(4-{4-[3-(2-fluoro-phenyl)-ureido]-phenyl}-piperazine-1-carbonyl)-amino]-benzoic acid], the melting point lay in the range of 250 to 253 °C. On mouse DGAT1, the inhibition at 0.1 µg/mL was ≥ 50%.
The matching figures for `CCOP(=O)(O)Cc1ccc(NC(=O)N2CCN(c3ccc(NC(=O)Nc4cc(C)ccc4OC)cc3)CC2)c(C)c1` [Example 391, {4-[(4-{4-[3-(2-methoxy-5-methyl-phenyl)-ureido]-phenyl}-piperazine-1-carbonyl)-amino]-3-methyl-benzyl}-phosphonic acid monoethyl ester]: 165 to 173 °C and ≥ 50%.
For `COC(=O)Cc1ccc(OC(=O)N2CCN(c3ccc(NC(=O)Nc4cc(C)ccc4OC)cc3)CC2)c(Cl)c1` [Example 393, 4-{4-[3-(2-methoxy-5-methyl-phenyl)-ureido]-phenyl}-piperazine-1-carboxylic acid 2-chloro-4-methoxycarbonylmethyl-phenyl ester], in that order: 209 to 210 °C and ≥ 50%.
In turn, `COc1ccc(C)cc1NC(=O)Nc1ccc(N2CCN(C(=O)Oc3ccc(CC(=O)O)cc3Cl)CC2)cc1` [Example 394, 4-{4-[3-(2-methoxy-5-methyl-phenyl)-ureido]-phenyl}-piperazine-1-carboxylic acid 4-carboxymethyl-2-chloro-phenyl ester] yielded a melting point of 199 to 200 °C. Also, the inhibition at 0.1 µg/mL at mouse DGAT1 is ≥ 50%.
Take `COc1ccc(C)cc1NC(=O)Nc1ccc(N2CCN(C(=O)Oc3ccc(CCO)cc3Cl)CC2)cc1` [Example 395, 4-{4-[3-(2-methoxy-5-methyl-phenyl)-ureido]-phenyl}-piperazine-1-carboxylic acid 2-chloro-4-(2-hydroxy-ethyl)-phenyl ester]: the melting point lay in the range of 189 to 190 °C. Also, the inhibition at 0.1 µg/mL on mouse DGAT1 is ≥ 50%.
The compound `COc1ccc(C)cc1NC(=O)Nc1ccc2c(c1)CCN(C(=O)Oc1ccc(CCO)cc1Cl)C2` [Example 396, 6-[3-(2-methoxy-5-methyl-phenyl)-ureido]-3,4-dihydro-1H-isoquinoline-2-carboxylic acid 2-chloro-4-(2-hydroxy-ethyl)-phenyl ester] registered a melting point of 95 to 98 °C. Also, on mouse DGAT1, the inhibition at 0.1 µg/mL was ≥ 50%.
The matching figures for `COc1ccc(C)cc1NC(=O)Nc1ccc2c(c1)CCN(C(=O)Oc1ccc(C(=O)O)cc1Cl)C2` [Example 397, 6-[3-(2-methoxy-5-methyl-phenyl)-ureido]-3,4-dihydro-1H-isoquinoline-2-carboxylic acid 4-carboxy-2-chloro-phenyl ester]: 196 to 198 °C and ≥ 50%.
